Test results from US12492210B2, “Tricyclic compounds and their use” (HUTCHISON MEDIPHARMA LIMITED, priority 2019, dated 2025).

Columns and labels:
MAPK1(ERK2) enzyme = target: T1, MAPK1(ERK2) enzyme (Homo sapiens, UniProt P28482); experiment: Z-Lyte Kinase Assay of ERK2; format: biochemical; details: read-out: Example 18 IC50
T1 construct: purchased Invitrogen PV3313
Procedure, shortened: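 FRET-based Z-LYTE assay using ERK2 kinase with Ser/Thr3 peptide; compound tested at 0.00046–1 μM final in 2% DMSO. Kinase reaction ran 1 h at 25-30° C, followed by 1 h development. The coumarin/fluorescein emission ratio (445/520 nm) gave % phosphorylation, and IC50 was fitted from inhibition relative to uninhibited control.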

[1] = tested on: p-RSK (Thr359) in colo205 cells; experiment: p-RSK (Thr359) Acumen Assay in Colo205; format: cell-based; details: Homo sapiens, COLO 205, 1 hour compound incubation, read-out: Example 19 IC50
Procedure, shortened: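 Colo205 cells (4000/well, seeded overnight in 10% FBS) were exposed 1 hour at 37° C to compound added from a 3–0.001 μM dilution series in 5% DMSO. Cells were then fixed, permeabilised and immunostained for p-RSK Thr359, with PI counterstain. Acumen cytometry gave the percentage of positive cells, normalised to untreated wells and 3 uM GDC0994 wells, for the IC50 fit.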

T1 sequence (P28482 whole entry): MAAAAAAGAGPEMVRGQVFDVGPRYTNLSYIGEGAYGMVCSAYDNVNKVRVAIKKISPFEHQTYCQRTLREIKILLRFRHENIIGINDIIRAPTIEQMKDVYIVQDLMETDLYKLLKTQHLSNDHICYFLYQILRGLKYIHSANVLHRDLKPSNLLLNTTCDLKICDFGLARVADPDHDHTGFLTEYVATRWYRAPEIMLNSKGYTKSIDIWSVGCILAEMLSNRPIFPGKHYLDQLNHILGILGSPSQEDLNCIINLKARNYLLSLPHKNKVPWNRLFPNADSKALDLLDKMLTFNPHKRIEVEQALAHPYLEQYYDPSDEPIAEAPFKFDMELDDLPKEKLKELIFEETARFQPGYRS

Row | SMILES | IC50 (MAPK1(ERK2) enzyme) | IC50 [1]
1 | Cc1cnc(Nc2ccnn2C)nc1-c1cc2n(c1)C[C@H](CF)n1c-2nnc1C(F)(F)n1cc(Cl)cn1 [Compound 156] | ≤ 5 nM | ≤ 100 nM
2 | Cn1nccc1Nc1cc(-c2cc3n(c2)C[C@H](C(F)F)n2c-3nnc2C(F)(F)c2ccccc2F)c(Cl)cn1 [Compound 208] | > 10 nM | ≤ 100 nM
3 | Cc1cnc(Nc2ccnn2C)cc1-c1cc2n(c1)C[C@H](CF)n1c-2nnc1C(F)(F)n1cc(Cl)cn1 [Compound 153] | ≤ 5 nM | ≤ 100 nM
4 | Cn1nccc1Nc1nccc(-c2cc3n(c2)C[C@H](CF)n2c-3nnc2C(F)(F)n2cc(Cl)cn2)n1 [Compound 111] | ≤ 5 nM | > 100 nM
5 | Cn1nccc1Nc1nccc(-c2cc3c4nnc(COc5ccccc5Cl)n4ccn3c2)n1 [Compound 40] | ≤ 5 nM | ≤ 100 nM
6 | Cc1c(-c2ccnc(Nc3ccnn3C)n2)cn2c1-c1nnc(C3(C(F)(F)F)CCC3)n1CCC2 [Compound 13] | ≤ 5 nM | > 100 nM
7 | Cc1cnc(Nc2ccnn2C)cc1-c1cc2n(c1)C[C@H](C)n1c-2nnc1C(F)(F)c1ccccc1Cl [Compound 118] | > 10 nM | ≤ 100 nM
8 | Cc1cnc(Nc2ccnn2C)nc1-c1cc2n(c1)CCn1c-2nnc1C(F)(F)c1ccccc1F [Compound 70] | ≤ 5 nM | ≤ 100 nM
9 | Cc1cnc(Nc2ccnn2C)nc1-c1cc2c3nnc(C4(C(F)(F)F)CCC4)n3c(C)cn2c1 [Compound 236] | ≤ 5 nM | ≤ 100 nM
10 | C[C@@H](CO)Nc1cc(-c2cc3n(c2)CCCn2c-3nnc2C2(C(F)(F)F)CCC2)c(Cl)cn1 [Compound 229, (S)-2-((5-chloro-4-(3-(1-(trifluoromethyl)cyclobutyl)-6,7-dihydro-5H-pyrrolo[1,2-a][1,2,4]triazolo[3,4-c][1,4]diazepin-10-yl)pyridin-2-yl)amino)propan-1-ol] | ≤ 5 nM | ≤ 100 nM
11 | Cc1cnc(Nc2ccnn2C)cc1-c1cc2n(c1)C[C@H](CF)n1c-2nnc1C(F)(F)c1ccc(F)cc1 [Compound 128] | 5 to 10 nM | ≤ 100 nM
12 | Cn1nccc1Nc1cc(-c2cc3n(c2)C[C@H](CF)n2c(Cc4c(F)cccc4F)nnc2-3)c(Cl)cn1 [Compound 139] | ≤ 5 nM | ≤ 100 nM
13 | Cn1nccc1Nc1ncc(Cl)c(-c2cc3n(c2)CCCn2c(COc4ccccc4F)nnc2-3)n1 [Compound 211, 5-chloro-4-(3-((2-fluorophenoxy)methyl)-6,7-dihydro-5H-pyrrolo[1,2-a][1,2,4]triazolo[3,4-c][1,4]diazepin-10-yl)-N-(1-methyl-1H-pyrazol-5-yl)pyrimidin-2-amine] | 5 to 10 nM | ≤ 100 nM
14 | Cn1nccc1Nc1nccc(-c2cc3n(c2)C[C@H](CF)n2c-3nnc2C(F)(F)c2ccccc2F)n1 [Compound 100] | ≤ 5 nM | ≤ 100 nM
15 | C[C@H]1Cn2cc(-c3ccnc(Nc4ccnn4C)c3)cc2-c2nnc(C(F)(F)c3ccccc3F)n21 [Compound 69] | ≤ 5 nM | > 100 nM
16 | Cn1nccc1Nc1ncc(F)c(-c2cc3n(c2)C[C@H](CF)n2c-3nnc2C(F)(F)n2cc(Cl)cn2)n1 [Compound 166] | ≤ 5 nM | ≤ 100 nM
17 | Cc1cnc(Nc2ccnn2C(C)C)nc1-c1cc2n(c1)C[C@H](C)n1c-2nnc1C(F)(F)c1ccccc1F [Compound 292] | > 10 nM | > 100 nM
18 | Cc1cnc(Nc2ccnn2C)nc1-c1cc2n(c1)C[C@H](C(F)F)n1c-2nnc1C(F)(F)c1ccccc1F [Compound 186] | 5 to 10 nM | ≤ 100 nM
19 | Cc1cnc(Nc2ccnn2C)cc1-c1cc2n(c1)[C@H]1CC[C@H](C1)n1c-2nnc1C(F)(F)C(F)F [Compound 67] | ≤ 5 nM | ≤ 100 nM
20 | Cn1nccc1Nc1cc(-c2cc3n(c2)C[C@H](CF)n2c-3nnc2C(F)(F)n2cc(Cl)cn2)c(Cl)cn1 [Compound 200] | 5 to 10 nM | ≤ 100 nM
21 | Cn1nccc1Nc1cc(-c2cc3n(c2)CC(F)(F)Cn2c(Cn4ncc5ccccc54)nnc2-3)c(Cl)cn1 [Compound 199] | 5 to 10 nM | > 100 nM

Continued, values first:

Row | IC50 (MAPK1(ERK2) enzyme) | IC50 [1] | SMILES
22 | ≤ 5 nM | ≤ 100 nM | C[C@H]1Cn2cc(-c3cc(Nc4ccnn4C)ncc3Cl)cc2-c2nnc(C3(C(F)(F)F)CCC3)n21 [Compound 256]
23 | ≤ 5 nM | > 100 nM | Cn1nccc1Nc1cc(-c2cc3n(c2)CCC2(CC2)n2c(CCC(F)(F)F)nnc2-3)c(Cl)cn1 [Compound 255]
24 | ≤ 5 nM | ≤ 100 nM | Cn1nccc1Nc1cc(-c2cc3n(c2)CC2(COC2)Cn2c-3nnc2C2(C(F)(F)F)CCC2)c(Cl)cn1 [Compound 307]
25 | ≤ 5 nM | > 100 nM | Cc1cnc(Nc2ccnn2C)nc1-c1cc2n(c1)[C@H](C)Cn1c-2nnc1C1(C(F)(F)F)CCC1 [Compound 48]
26 | 5 to 10 nM | ≤ 100 nM | C[C@H]1CCn2cc(-c3cc(Nc4ccnn4C)ncc3Cl)cc2-c2nnc(C3(C(C)(F)F)CCC3)n21 [Compound 105]
27 | > 10 nM | ≤ 100 nM | Cn1nccc1Nc1cc(-c2cc3n(c2)CC2(CC2)Cn2c-3nnc2C2(C(C)(F)F)CCC2)c(Cl)cn1 [Compound 136]
28 | 5 to 10 nM | ≤ 100 nM | CO[C@H]1Cn2cc(-c3cc(Nc4ccnn4C)ncc3Cl)cc2-c2nnc(C3(C(C)(F)F)CCC3)n2C1 [Compound 155]
29 | 5 to 10 nM | > 100 nM | COc1cnc(Nc2ccnn2C)cc1-c1cc2n(c1)CC(F)(F)Cn1c-2nnc1C1(C(F)(F)F)CCC1 [Compound 214]
30 | ≤ 5 nM | ≤ 100 nM | Cc1cnc(Nc2ccnn2C)cc1-c1cc2n(c1)CCCn1c-2nnc1C1(C(F)(F)F)CCC1 [Compound 237]
31 | ≤ 5 nM | ≤ 100 nM | Cn1nccc1Nc1cc(-c2cc3n(c2)CC(C)(C)n2c(CCC(F)(F)F)nnc2-3)c(Cl)cn1 [Compound 247]
32 | > 10 nM | ≤ 100 nM | Cn1nccc1Nc1cc(-c2cc3n(c2)CCCn2c-3nnc2C(F)(F)c2ccccc2Cl)c(Cl)cn1 [Compound 35]
33 | ≤ 5 nM | > 100 nM | Cn1nccc1Nc1cc(-c2cc3n(c2)CCCn2c-3nnc2C2(C(F)(F)F)CCC2)c(F)cn1 [Compound 241]
34 | ≤ 5 nM | ≤ 100 nM | Cn1nccc1Nc1cc(-c2cc3n(c2)CC2(CC2)Cn2c-3nnc2C2(C(F)(F)F)CCC2)c(Cl)cn1 [Compound 268]
35 | ≤ 5 nM | > 100 nM | Cc1cnc(Nc2ccnn2C)nc1-c1cc2n(c1)C[C@@H](C)n1c-2nnc1C1(C(F)(F)F)CCC1 [Compound 239]
36 | 5 to 10 nM | > 100 nM | Cn1nccc1Nc1cc(-c2cc3n(c2)CC2(CCC2)Cn2c-3nnc2C(F)(F)C(F)F)c(Cl)cn1 [Compound 119]
37 | ≤ 5 nM | ≤ 100 nM | Cn1nccc1Nc1cc(-c2cc3n(c2)C[C@H](CF)n2c-3nnc2C(F)(F)c2ccccn2)c(Cl)cn1 [Compound 141]
38 | > 10 nM | ≤ 100 nM | C[C@H]1Cn2cc(-c3cc(Nc4ccnn4C)ncc3Cl)cc2-c2nnc(C(F)(F)c3ccccc3Cl)n21 [Compound 178]
39 | 5 to 10 nM | ≤ 100 nM | C[C@H]1Cn2cc(-c3cc(Nc4ccnn4C)ncc3Cl)cc2-c2nnc(C(F)(F)n3cc(Cl)cn3)n21 [Compound 157]
40 | ≤ 5 nM | > 100 nM | COC1(c2nnc3n2[C@@H](CF)Cn2cc(-c4cc(Nc5ccnn5C)ncc4Cl)cc2-3)CCC1 [Compound 64]
